# Tested on: Mus musculus
# Experiment: Inhibition of TPA-induced inflammation in mouse assessed per ear by edema assay
# Assay type: functional
row,SMILES,ID50 [µmol/ear]
1,C[C@@H]1[C@H]([C@@H](O)[C@](C)(O)[C@H]2CC[C@@]3(O)C4=CC(=O)[C@@H]5C[C@@H](O)[C@@H](O)C[C@]5(C)[C@H]4CC[C@]23C)OC[C@H]1C [POLYPOROID B],0.682
2,C=C(C[C@@H](O)[C@@H](C)[C@H]1CC[C@@]2(O)C3=CC(=O)[C@@H]4C[C@@H](O)[C@@H](O)C[C@]4(C)[C@H]3CC[C@]12C)C(C)C [POLYPORUSTERONE G],0.207
3,C=C(C[C@@H](O)[C@](C)(O)[C@H]1CC[C@@]2(O)C3=CC(=O)[C@@H]4C[C@@H](O)[C@@H](O)C[C@]4(C)[C@H]3CC[C@]12C)C(C)C [POLYPORUSTERONE B],0.117
4,CC(C)C(C)/C=C/[C@@H](C)[C@H]1CC[C@H]2C3=C[C@@H](O)[C@@]4(O)C[C@@H](O)CC[C@]4(C)[C@H]3CC[C@]12C (some centres undefined),0.666
5,CC(C)C(C)[C@H](O)[C@@H]1O[C@H]2C[C@@]3(O)C4=CC(=O)[C@@H]5C[C@@H](O)[C@@H](O)C[C@]5(C)[C@H]4CC[C@]3(C)[C@H]2[C@@]1(C)O (some centres undefined) [POLYPOROID A],0.531
6,COc1ccc2c(c1)c(CC(=O)O)c(C)n2C(=O)c1ccc(Cl)cc1 [INDOMETHACIN],0.838
7,CC(C)C(C)C[C@@H](O)[C@](C)(O)[C@H]1CC[C@@]2(O)C3=CC(=O)[C@@H]4C[C@@H](O)[C@@H](O)C[C@]4(C)[C@H]3CC[C@]12C (some centres undefined) [POLYPORUSTERONE A],0.141
8,CC(C)C(C)C1O[C@H]1[C@](C)(O)[C@H]1CC[C@@]2(O)C3=CC(=O)[C@@H]4C[C@@H](O)[C@@H](O)C[C@]4(C)[C@H]3CC[C@]12C (some centres undefined) [POLYPORUSTERONE C],0.289
9,CC(C)C(C)C[C@@H](O)[C@](C)(O)[C@H]1[C@@H](O)C[C@@]2(O)C3=CC(=O)[C@@H]4C[C@@H](O)[C@@H](O)C[C@]4(C)[C@H]3CC[C@]12C (some centres undefined) [POLYPOROID C],0.184
